For data set [1], the system named is gp46 mRNA in pHSC. Briefly: In vitro (pHSC) gp46 knockdown by siRNA liposome formulations, qRT-PCR. Type of data set: cell-based. In general terms: Quantitative PCR measures a nucleic acid by following its amplification.
Data set [2] deals with gp46 mRNA in pHSC. The data set is described as above. Type of data set: cell-based. Conditions: @ 20 nM. As to the method:
In Vitro (pHSC, Gp46 KD @ 20 nM) Efficacy
PHSCs in 96-well plate were incubated with formulation that composed of either ionizable lipid formulation C104, ionizable lipid formulation Tu104, or combination formulations with different ratio of ionizable lipids (C104:Tu104). After 30 minutes, medium was replaced with fresh growth medium. Forty eight hours later, cells were lysed and gp46 and GAPDH mRNA levels measured by quantitative RT-PCR (TaqMan®) assay, and gp46 levels were normalized to GAPDH levels. Normalized gp46 levels were expressed as percent of mock control cells. Error bars indicate standard deviations (n=3). Results are depicted in FIG. 1.
Transfection method is same for LX-2 and pHSCs. The liposome formulations or lipoplex formulations of the description were mixed with growth medium at desired concentrations. 100 μl of the mixture was added to the cells in 96-well plate and cells were incubated for 30 min at 37° C. in the incubator with 5% CO2. After 30 min, medium was replaced with fresh growth medium. After 48 h of transfection, cells were processed using Cell-to-Ct lysis reagents (Applied Biosystems) according to the manufacturer's instructions.
HSP47 and GAPDH TaqMan®® assays and One-Step RT-PCR master mix were purchased from Applied Biosystems. Each PCR reaction contained the following composition: One-step RT-PCR mix 5 μl, TaqMan® RT enzyme mix 0.25 μl, TaqMan® gene expression assay probe (HSP47) 0.25 μl, TaqMan® gene expression assay probe (GAPDH) 0.5 μl, RNase free water 3.25 μl, Cell lysate 0.75 μl, Total volume of 10 μl. GAPDH was used as endogenous control for the relative quantification of HSP47 mRNA levels. Quantitative RT-PCR was performed in ViiA 7 realtime PCR system (Applied Biosciences). All values were normalized to the average HSP47 expression of the mock transfected cells and expressed as percentage of HSP47 expression compared to mock.

Data set [3] deals with gp46 mRNA. Briefly: In vivo (DMNQ) efficacy, short-term liver damage model, liver gp46 mRNA. On the set-up: species or system male Sprague-Dawley rats. The following applies: single IV dose, liver 24 h after. As to the method:
In vivo activity of target formulation was evaluated in the short-term liver damage model (referred to as the Quick Model or DMNQ). In this model, the short-term liver damage induced by treatment with a hepatotoxic agent such as dimethylnitrosamine (DMN) is accompanied by the elevation of gp46 mRNA levels. To induce these changes, male Sprague-Dawley rats were injected intraperitoneally with DMN on six consecutive days. At the end of the DMN treatment period, the animals were randomized to groups based upon individual animal body weight. Formulations was administered as a single IV dose, one hour after the last injection of DMN. Twenty four hours after, liver lobes were excised and both gp46 and MRPL19 mRNA levels were determined by quantitative RT-PCR (TaqMan) assay. mRNA levels for gp46 were normalized to MRPL19 levels. Results are depicted in FIG. 4. Several combinations of ionizable:cationic lipids achieved 50% reduction in gene expression for a single, 0.5 mg per kg of animal body weight, dose of encapsulated siRNA.

The test system of data set [4] is HepG2 cells. Briefly: HepG2 cytotoxicity assay (CellTiter-Glo). Type of data set: cell-based, human. Conditions: HepG2 @ 200 nM, 48 h post formulation addition, n=3. As to the method: In Vitro Toxicology Data, In Vitro Cytotoxicity (HepG2 @ 200 nM)
HepG2 cells, an adherent cell line derived from human hepatocellular carcinoma, was cultured in MEM/EBSS (Hyclone, Logan, Utah, Cat# SH30024.01) supplemented with 10% FBS (Hyclone, Logan, Utah Cat# SH30910). HepG2 cells were seeded in 96-well Optilux black plates (BD Falcon, Cat # BD353220) at 5000 cells/well overnight. Formulations were added to each well to final indicated siRNA concentration (n=3). At 48 h post formulation addition, cell viability was determined using CellTiter-Glo Luminescent Cell Viability Assay Kit (Promega, Cat #G7572) following manufacture's instruction. Chemiluminescent signal were measured on Clarity Luminescence Microplate Reader (502-Biotek, Winooski, Vt.). Viability was calculated based on % of chemiluminescent signal in formulation treated well normalized against mock treated wells.
Background: ATP-based viability assays read luminescence as a measure of living cells.

SMILES strings stand for the structures.

As for `CCCCCCCC/C=C\CCCCCCCC(=O)OCCN(CCOC(=O)CCCCCCC/C=C\CCCCCCCC)C(=O)CN(C)C` [INT-4, (Z)-((2-(dimethylamino)acetyl)azanediyl)bis(ethane-2,1-diyl) dioleate], the “in vitro (pHSC) % KD” value in data set [1] (@ 50 nM) worked out at 70% @ 50 nM.

`CCCCCCCCCCCCCC(=O)OCCN(CCOC(=O)CCCCCCCCCCCCC)C(=O)c1ccc(CN(C)C)s1` [Lipid T104, ((5-((dimethylamino)methyl)thiophene-2-carbonyl)azanediyl)bis(ethane-2,1-diyl) ditetradecanoate]: in data set [2], the “in vitro (pHSC) % KD” value is reported as 58% @ 20 nM.

On to `CCCCCCCCCCCCCC(=O)OCCN(CCOC(=O)CCCCCCCCCCCCC)C(=O)CCN(C)C` [i-Et-DC, ((3-(dimethylamino)propanoyl)azanediyl)bis(ethane-2,1-diyl) ditetradecanoate], for which, in data set [1] (@ 50 nM), the “in vitro (pHSC) % KD” value came out at 65% @ 50 nM.

In the case of `CCCCCCCCCCCCCC(=O)OCCN(CCOC(=O)CCCCCCCCCCCCC)C(=O)COC(=O)CCCN(C)C` [HEDC- M1, ((2-((4-(dimethylamino)butanoyl)oxy)acetyl)azanediyl)bis(ethane-2,1-diyl) ditetradecanoate], the “in vitro (pHSC) % KD” value in data set [2] stood at 53% @ 20 nM.

With `CCCCCCCC/C=C\CCCCCCCC(=O)OCCN(CCOC(=O)CCCCCCC/C=C\CCCCCCCC)C(=O)CCCCN(C)C` [C104-DO, (Z)-((5-(dimethylamino)pentanoyl)azanediyl)bis(ethane-2,1-diyl) dioleate], the “in vitro (pHSC) % KD” value in data set [2] is 32% @ 20 nM.

For `CCCCCCCCCCCCCC(=O)OCCN(CCOC(=O)CCCCCCCCCCCCC)C(=O)CCCCN(C)C` [Lipid C104, ((5-(dimethylamino)pentanoyl)azanediyl)bis(ethane-2,1-diyl) ditetradecanoate], in data set [2], the “in vitro (pHSC) % KD” value is listed as 53% @ 20 nM. Moreover, in data set [3] (@ 0.5 mpk), the “in vivo (rat DMNQ) % KD” value was 75% @ 0.5 mpk.

Regarding `CCCCCCCC/C=C\CCCCCCCC(=O)OCCN(CCOC(=O)CCCCCCC/C=C\CCCCCCCC)C(=O)SCCN(C)C` [TU104-DO, (Z)-((((2-(dimethylamino)ethyl)thio)carbonyl)azanediyl)bis(ethane-2,1-diyl) dioleate], in data set [2], the “in vitro (pHSC) % KD” value came out at 81% @ 20 nM. Further, the “in vivo (rat DMNQ) % KD” value in data set [3] (@ 0.25 mpk) is on record as 40% @ 0.25 mpk.

For the compound `CCCCCCCC/C=C\CCCCCCCC(=O)OCCN(CCOC(=O)CCCCCCC/C=C\CCCCCCCC)C(=O)CCCN(C)C` [i-Prop- DODC, (Z)-((4-(dimethylamino)butanoyl)azanediyl)bis(ethane-2,1-diyl) dioleate], the “in vitro (pHSC) % KD” value in data set [2] amounted to 27% @ 20 nM; in data set [1] (@ 50 nM), 55% @ 50 nM.

For `CCCCCCCC/C=C\CCCCCCCC(=O)OCCCN(CCCOC(=O)CCCCCCC/C=C\CCCCCCCC)C(=O)CN(C)C` [i-Pr- DODC, (Z)-((2-(dimethylamino)acetyl)azanediyl)bis(propane-3,1-diyl) dioleate], the “in vitro (pHSC) % KD” value in data set [1] (@ 50 nM) was 60% @ 50 nM.

As for `CCCCCCCC/C=C\CCCCCCCC(=O)OCCN(CCOC(=O)CCCCCCC/C=C\CCCCCCCC)C(=O)CCN(C)C` [i-Et- DODC, (Z)-((3-(dimethylamino)propanoyl)azanediyl)bis(ethane-2,1-diyl) dioleate], the “in vitro (pHSC) % KD” value in data set [1] (@ 50 nM) was 43% @ 50 nM.

Regarding `CCCCCCCCCCCCCC(=O)OCCCN(CCCOC(=O)CCCCCCCCCCCCC)C(=O)CN(C)C` [i-Pr-DC, ((2-(dimethylamino)acetyl)azanediyl)bis(propane-3,1-diyl) ditetradecanoate], the “in vitro (pHSC) % KD” value in data set [1] (@ 50 nM) turned out to be 53% @ 50 nM.

For `CCCCCCCCCCCCCC(=O)OCCN(CCOC(=O)CCCCCCCCCCCCC)C(=O)COCCN(C)C` [Lipid O104, ((2-(2-(dimethylamino)ethoxy)acetyl)azanediyl)bis(ethane-2,1-diyl) ditetradecanoate], the “in vitro (pHSC) % KD” value in data set [2] was found to be 55% @ 20 nM.

Consider `CCCCCCCCCCCCCC(=O)OCCN(CCOC(=O)CCCCCCCCCCCCC)C(=O)CN(C)C` [i-DC, ((2-(dimethylamino)acetyl)azanediyl)bis(ethane-2,1-diyl) ditetradecanoate], for which, in data set [1] (@ 200 nM), the “in vitro (pHSC) % KD” value is on record as 89% @ 200 nM.

As for `CCCCCCCCCCCCCC(=O)OCCN(CCOC(=O)CCCCCCCCCCCCC)C(=O)CSCCN(C)C` [Lipid S104, ((2-((2-(dimethylamino)ethyl)thio)acetyl)azanediyl)bis(ethane-2,1-diyl) ditetradecanoate], the “in vivo (rat DMNQ) % KD” value in data set [3] (@ 0.5 mpk) came out at 52% @ 0.5 mpk. For the same compound, in data set [4], the “% viability” value is given as 52%. Moreover, the “in vitro (pHSC) % KD” value in data set [1] (@ 50 nM) worked out at 68% @ 50 nM.

As to `CCCCCCCCCCCCCC(=O)OCCN(CCOC(=O)CCCCCCCCCCCCC)C(=O)CCCN(C)C` [i-Prop- DC, ((4-(dimethylamino)butanoyl)azanediyl)bis(ethane-2,1-diyl) ditetradecanoate], the “in vitro (pHSC) % KD” value in data set [2] is 54% @ 20 nM; in data set [1] (@ 50 nM), 55% @ 50 nM.

In the case of `CCCCCCCCCCCCCC(=O)OCCN(CCOC(=O)CCCCCCCCCCCCC)C(=O)SCCN(C)C` [TU104, ((((2-(dimethylamino)ethyl)thio)carbonyl)azanediyl)bis(ethane-2,1-diyl) ditetradecanoate], in data set [2], the “in vitro (pHSC) % KD” value stood at 76% @ 20 nM.

`CCCCCCCCCCCCCC(=O)OCCN(CCOC(=O)CCCCCCCCCCCCC)C(=O)CS(=O)(=O)CCN(C)C` [SO2-S104, ((2-((2-(dimethylamino)ethyl)sulfonyl)acetyl)azanediyl)bis(ethane-2,1-diyl) ditetradecanoate]: the “in vitro (pHSC) % KD” value in data set [2] stood at 75% @ 20 nM. Besides, the “in vivo (rat DMNQ) % KD” value in data set [3] (@ 0.5 mpk) was 18% @ 0.5 mpk.

As to `CCCCCCCCCCCCCC(=O)OCCN(CCOC(=O)CCCCCCCCCCCCC)C(=O)OCCCN(C)C` [CB104, (((3-(dimethylamino)propoxy)carbonyl)azanediyl)bis(ethane-2,1-diyl) ditetradecanoate], the “in vitro (pHSC) % KD” value in data set [2] is reported as 42% @ 20 nM.

On to `CCCC/C=C/CCCCCCCC(=O)OCCN(CCOC(=O)CCCCCCC/C=C/CCCC)C(=O)CSCCN(C)C` [S104-DMO, (9Z,9′Z)-((2-((2-(dimethylamino)ethyl)thio)acetyl)azanediyl)bis(ethane-2,1-diyl) bis(tetradec-9-enoate)], for which the “in vitro (pHSC) % KD” value in data set [1] (@ 10 nM) amounted to 40% @ 10 nM.

For the compound `CCCCCCCC/C=C\CCCCCCCC(=O)OCCN(CCOC(=O)CCCCCCC/C=C\CCCCCCCC)C(=O)CSCCN(C)C` [S104-DO, (Z)-((2-((2-(dimethylamino)ethyl)thio)acetyl)azanediyl)bis(ethane-2,1-diyl) dioleate], the “in vitro (pHSC) % KD” value in data set [2] worked out at 78% @ 20 nM. For the same compound, in data set [3] (@ 0.5 mpk), the “in vivo (rat DMNQ) % KD” value is on record as 65% @ 0.5 mpk.

These data come from US10441659B2, “Lipids for therapeutic agent delivery formulations” (Nitto Denko Corporation, priority 2012, dated 2019).
